Experimental data taken from patent US20260041677A1, “COMPOSITIONS AND METHODS FOR TREATING ADENOID CYSTIC CARCINOMA” (ELEVAR THERAPEUTICS, INC., priority 2022, published 2026).

Legend:
[1] = system: recurrent or metastatic (R/M) adenoid cystic carcinoma (ACC); test: Phase 2 study of rivoceranib in R/M ACC: overall survival, intention-to-treat population; format: in vivo, human; conditions: 700 mg QD start
Description: (§1) Objectives: Primary objectives were to evaluate safety & tolerability, efficacy by objective response rate (ORR), best overall response (BOR), time to response, duration of response, disease control rate, and duration of disease control. Secondary objectives were to evaluate efficacy as measured by overall survival, progression-free survival and event-free survival. The primary efficacy endpoint was the ORR, defined as the proportion of patients who achieved confirmed complete response (CR) or partial response (PR) per Response Evaluation Criteria in Solid Tumors (RECIST) Version 1.1 (V1.1). The secondary efficacy endpoints were duration of response (DoR) assessed by the investigator and a blinded independent review committee (BIRC), progression-free survival (PFS) assessed at 6 months, 12 months, and 2 years by investigator and BIRC, Time to Progression (TTP) assessed by investigator and BIRC, and overall survival (OS) assessed at 1 and 2 years. Exploratory efficacy endpoints include ORR per CHOI response criteria (based on the journal article, Choi et al., Correlation of computed tomography and positron emission tomography in patients with metastatic gastrointestinal stromal tumor treated at a single institution with imatinib mesylate: proposal of new computed tomography response criteria. J Clin Oncol. 2007; 25(13): 1753-1759) by a blinded independent review […] (BIRC) and disease control rate (DCR) per RECIST V1.1 by Investigator and BIRC. Except for CHOI response criteria, all response endpoints were assessed per RECIST V1.1 by Investigator and BIRC.
The OS was calculated by Overall Survival (months)=12*(Date of death−First dose of rivoceranib+1)/365.25. Median OS were not evaluable. In general, OS rates at 6, 9 and 12 months were similar regardless of prior VEGFR inhibitor treatment or prior systemic anticancer treatment.

[2] = Phase 2 study of rivoceranib in R/M ACC: safety, adverse events, dose modifications; format: in vivo, human
Description: Overall design: An ongoing Phase 2, multicenter, open-label, single-arm study was designed to evaluate the efficacy and safety of rivoceranib in patients with recurrent or metastatic (R/M) adenoid cystic carcinoma (ACC) of all anatomic sites of origin. The study was composed of an initial screening phase (up to 28 days), a treatment phase, and a follow-up phase.
as §1
Dose determination: Enrolled patients initiated treatment with rivoceranib 700 mg daily (QD). Up to 3 levels of dose reduction for toxicity were permitted: 500 mg QD, 300 mg QD and 200 mg QD. Patients received treatment until disease progression, unacceptable toxicity, death or withdrawal of consent to treatment. Patients deriving benefit were permitted to continue treatment with rivoceranib beyond disease progression. After discontinuation of study treatment, patients were to be followed for survival (and initiation of new anticancer therapy) for 24 months. Patients were dosed with rivoceranib 700 mg orally daily (QD) in 28-day cycles. Treatment with rivoceranib was continued until disease progression, unacceptable toxicity, death, or withdrawal of consent.
The median duration of treatment was 31.07 weeks (range: 0.6 to 103.0). The median time-averaged daily dose was 397.6 mg/day, which was […] of initial daily dose of 700 mg/day. Overall, 85% of patients required 1 or more dose modifications (reduction or interruption) due to an adverse event (AE).
Safety Summary: Rivoceranib was generally well-tolerated with the toxicity profile as expected based on other studies of rivoceranib in patients with solid tumors, and consistent with the class effect of angiogenesis inhibitors. […] Four patients experienced a fatal adverse event. These events consisted of epistaxis in two patients and acute respiratory failure in two patients. […] The median time to each of these dose reductions was 4.00, 7.71 and 16.00 weeks, respectively. The median duration of treatment was 31.1 weeks (range, 0.6-103.0). The median actual dose intensity was 421.0 mg/day. The relative dose intensity was 60.1%. Overall, 68 patients required one or more dose modifications (reduction or interruption) due to an adverse event. The median time to first dose reduction was 4.1 weeks (range, 1-40).

N#CC1(c2ccc(NC(=O)c3cccnc3NCc3ccncc3)cc2)CCCC1 [Rivoceranib, N-[4-(1-cyanocyclopentyl)phenyl]-2-{[(pyridin-4-yl)methyl]amino}pyridine-3-carboxamide]
OS rate at 6 months ([1]; ITT population): 94.7% | OS rate at 9 months ([1]; ITT population): 83.5% | OS landmark 12-months, % (95% CI) ([1]; ITT, Total N = 80): 74.5 (62.5-83.1) % | OS landmark 18-months, % (95% CI) ([1]; ITT, Total N = 80): 61.7 (48.3-72.5) % | OS landmark 12-months, % (95% CI) ([1]; ITT, VEGFRi-naïve N = 66): 77.4 (64.2-86.2) % | OS landmark 18-months, % (95% CI) ([1]; ITT, VEGFRi-naïve N = 66): 66.0 (51.1-77.3) % | Median OS ([1]; ITT, VEGFRi-treated N = 14): 17.5 months | OS landmark 12-months, % ([1]; ITT, VEGFRi-treated N = 14): 62.9% | OS landmark 18-months, % ([1]; ITT, VEGFRi-treated N = 14): 45.8% | fatal adverse event: acute respiratory failure ([2]; N = 80, 700 mg QD start): two | fatal adverse event: epistaxis ([2]; N = 80, 700 mg QD start): two | patients who experienced a fatal adverse event ([2]; N = 80, 700 mg QD start): Four | Median time to dose reduction to 300 mg QD ([2]; human, in vivo): 7.71 weeks | Median time to dose reduction to 500 mg QD ([2]; human, in vivo): 4.00 weeks | Number of Subjects with Dose Interruption (n, %) ([2]; human, in vivo): (83.8) % | Number of Subjects with Dose Modification (n, %) ([2]; human, in vivo): (88.8) % | Treatment interruptions due to adverse events, patients ([2]; human, in vivo): 86.3% | Treatment reductions due to adverse events, patients ([2]; human, in vivo): 48.8% | median time to first dose reduction ([2]; human, in vivo): 4.1 weeks | patients dose reduced from 700 mg QD to 500 mg QD ([2]; human, in vivo): 80.0% | patients dose reduced to 200 mg QD ([2]; human, in vivo): 32.5% | patients dose reduced to 300 mg QD ([2]; human, in vivo): 51.3%
